Laboratory results: PubChem BioAssay AID248 (DTP/NCI, 2004)
Values joined by “and” are separate entries in the source; they are usually repeats but may differ in a detail not shown here. Equal entries are not always repeated. Inconclusive results and toxic doses are left out. Cut-off read from the data, not from the text of the source: active = T/C of 150% or more; inactive = T/C below 125%.

Tested on: L1210 leukemia ip in BDF1 mice, survival T/C
Experiment: NCI In Vivo Anticancer Drug Screen. Data for tumor model L1210 Leukemia (intraperitoneal) in B6D2F1 (BDF1) mice
Details: endpoint: mean survival time, higher = longer survival
How it was run: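 Survival endpoint. Drug-treated group vs vehicle group, expressed as T divided by C. Tumor passaged by transplantation.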

[1] = dose: 50.0 mg/kg/injection, schedule: Q01DX001 (ip), vehicle: carboxymethylcellulose (CMC)
[2] = dose: 50.0 mg/kg/injection, schedule: Q01DX009 (ip), vehicle: Klucel (hydroxypropylcellulose) (HPC)
[3] = dose: 100.0 mg/kg/injection, schedule: Q01DX001 (ip), vehicle: carboxymethylcellulose (CMC)
[4] = dose: 100.0 mg/kg/injection, schedule: Q01DX009 (ip), vehicle: Klucel (hydroxypropylcellulose) (HPC)
[5] = dose: 100.0 mg/kg/injection, schedule: Q04DX003 (ip), vehicle: Klucel (hydroxypropylcellulose) (HPC)
[6] = dose: 200.0 mg/kg/injection, schedule: Q01DX001 (ip), vehicle: carboxymethylcellulose (CMC)
[7] = dose: 200.0 mg/kg/injection, schedule: Q04DX003 (ip), vehicle: Klucel (hydroxypropylcellulose) (HPC)
[8] = dose: 50.0 mg/kg/injection, schedule: Q01DX009 (ip), vehicle: saline
[9] = dose: 50.0 mg/kg/injection, schedule: Q01DX001 (ip), vehicle: saline
[10] = dose: 100.0 mg/kg/injection, schedule: Q01DX001 (ip), vehicle: saline
[11] = dose: 12.5 mg/kg/injection, schedule: Q01DX009 (ip), vehicle: saline
[12] = dose: 25.0 mg/kg/injection, schedule: Q01DX009 (ip), vehicle: saline with Tween-80
[13] = dose: 25.0 mg/kg/injection, schedule: Q01DX009 (ip), vehicle: saline
[14] = dose: 400.0 mg/kg/injection, schedule: Q01DX001 (ip), vehicle: carboxymethylcellulose (CMC)
[15] = dose: 50.0 mg/kg/injection, schedule: Q01DX009 (ip), vehicle: saline with Tween-80
[16] = dose: 100.0 mg/kg/injection, schedule: Q04DX003 (ip), vehicle: saline with Tween-80
[17] = dose: 100.0 mg/kg/injection, schedule: Q01DX001 (ip), vehicle: saline with Tween-80
[18] = dose: 200.0 mg/kg/injection, schedule: Q01DX001 (ip), vehicle: saline with Tween-80
[19] = dose: 400.0 mg/kg/injection, schedule: Q01DX001 (ip), vehicle: saline with Tween-80
[20] = dose: 100.0 mg/kg/injection, schedule: Q01DX009 (ip), vehicle: saline with Tween-80
[21] = dose: 200.0 mg/kg/injection, schedule: Q01DX009 (ip), vehicle: saline with Tween-80
[22] = dose: 200.0 mg/kg/injection, schedule: Q04DX003 (ip), vehicle: saline with Tween-80
[23] = dose: 400.0 mg/kg/injection, schedule: Q04DX003 (ip), vehicle: saline with Tween-80

Measured: T/C

S=C1NCCS1
inactive: [1] 113 % of control | [2] 110 % of control | [3] 102 % of control | [4] 108 % of control | [5] 108 % of control | [6] 94 % of control | dose: 200.0 mg/kg/injection, schedule: Q01DX009 (ip), vehicle: Klucel (hydroxypropylcellulose) (HPC) 110 % of control | [7] 113 % of control

OC1=NN(Cc2ccccc2)NO1
inactive: dose: 25.0 mg/kg/injection, schedule: Q01DX009 (ip), vehicle: Klucel (hydroxypropylcellulose) (HPC) 95 % of control | [2] 95 % of control | [4] 92 % of control | dose: 100.0 mg/kg/injection, schedule: Q04DX002 (ip), vehicle: Klucel (hydroxypropylcellulose) (HPC) 104 % of control | dose: 200.0 mg/kg/injection, schedule: Q04DX002 (ip), vehicle: Klucel (hydroxypropylcellulose) (HPC) 104 % of control | dose: 400.0 mg/kg/injection, schedule: Q04DX002 (ip), vehicle: Klucel (hydroxypropylcellulose) (HPC) 93 % of control

CCN(CC)CCCOC(=O)c1ccccc1
inactive: [8] 96 % of control | dose: 100.0 mg/kg/injection, schedule: Q01DX009 (ip), vehicle: saline 100 % of control | dose: 200.0 mg/kg/injection, schedule: Q01DX009 (ip), vehicle: saline 100 % of control

O=C(Nc1ccc(F)cc1)Nc1cccc(O)c1
inactive: [1] 106 % of control | dose: 50.0 mg/kg/injection, schedule: Q04DX002 (ip), vehicle: carboxymethylcellulose (CMC) 97 % of control and 98 % of control | dose: 50.0 mg/kg/injection, schedule: Q04DX003 (ip), vehicle: carboxymethylcellulose (CMC) 101 % of control | [3] 103 % of control | dose: 100.0 mg/kg/injection, schedule: Q01DX009 (ip), vehicle: carboxymethylcellulose (CMC) 92 % of control and 101 % of control | dose: 100.0 mg/kg/injection, schedule: Q04DX002 (ip), vehicle: carboxymethylcellulose (CMC) 94 % of control and 95 % of control and 98 % of control | dose: 100.0 mg/kg/injection, schedule: Q04DX003 (ip), vehicle: carboxymethylcellulose (CMC) 102 % of control | [6] 96 % of control | dose: 200.0 mg/kg/injection, schedule: Q01DX009 (ip), vehicle: carboxymethylcellulose (CMC) 98 % of control | dose: 200.0 mg/kg/injection, schedule: Q04DX002 (ip), vehicle: carboxymethylcellulose (CMC) 95 % of control and 101 % of control and 90 % of control | dose: 200.0 mg/kg/injection, schedule: Q04DX003 (ip), vehicle: carboxymethylcellulose (CMC) 98 % of control | dose: 400.0 mg/kg/injection, schedule: Q01DX009 (ip), vehicle: carboxymethylcellulose (CMC) 98 % of control and 103 % of control

Nc1nc(N)c(-c2ccc(Cl)cc2)c(CCc2ccc(NC(=O)CBr)cc2)n1
inactive: [9] 116 % of control | [10] 110 % of control

c1ccc(C[n+]2ccc3ccccc3c2)cc1
inactive: dose: 6.25 mg/kg/injection, schedule: Q01DX009 (ip), vehicle: saline with Tween-80 95 % of control | dose: 6.25 mg/kg/injection, schedule: Q04DX003 (ip), vehicle: saline with Tween-80 107 % of control | dose: 10.0 mg/kg/injection, schedule: Q04DX003 (ip), vehicle: saline 105 % of control | dose: 12.5 mg/kg/injection, schedule: Q01DX009 (ip), vehicle: saline with Tween-80 103 % of control | [11] 112 % of control | dose: 12.5 mg/kg/injection, schedule: Q04DX003 (ip), vehicle: saline with Tween-80 98 % of control | dose: 20.0 mg/kg/injection, schedule: Q04DX003 (ip), vehicle: saline 92 % of control | [12] 111 % of control | [13] 107 % of control | dose: 25.0 mg/kg/injection, schedule: Q04DX003 (ip), vehicle: saline with Tween-80 91 % of control | dose: 40.0 mg/kg/injection, schedule: Q04DX003 (ip), vehicle: saline 94 % of control | [8] 104 % of control | dose: 50.0 mg/kg/injection, schedule: Q04DX003 (ip), vehicle: saline 95 % of control

Cc1ccc(CN(C)C)c(C(O)(c2ccccc2)c2ccccc2)c1
inactive: [1] 96 % of control | [3] 107 % of control | [6] 100 % of control | [14] 96 % of control

CCCCCCCCCCCCCCC(F)C(=O)OCC1OC(CO)(OC2OC(CO)C(O)C(O)C2O)C(O)C1O (stereo not drawn)
inactive: [12] 98 % of control | [15] 100 % of control | [16] 107 % of control

OCC1OC(n2ccc3c(SCc4ccccc4)ncnc32)C(O)C1O (stereo not drawn)
inactive: dose: 25.0 mg/kg/injection, schedule: Q01DX001 (ip), vehicle: saline 110 % of control | [9] 107 % of control | [10] 98 % of control | dose: 200.0 mg/kg/injection, schedule: Q01DX001 (ip), vehicle: saline 116 % of control

CC1=C(C)Cc2c(-c3ccccc3)oc(-c3ccccc3)c2C1
inactive: [17] 94 % of control | [18] 90 % of control | [19] 90 % of control

N#Cc1ccc(/C=N/N2CCN(/N=C/c3ccc(C#N)cc3)CC2)cc1
inactive: [3] 96 % of control | [6] 91 % of control | [14] 94 % of control

COc1ccc(CCO)cc1OC
inactive: [1] 95 % of control | dose: 100.0 mg/kg/injection, schedule: Q01DX009 (ip), vehicle: water 93 % of control | dose: 100.0 mg/kg/injection, schedule: Q04DX003 (ip), vehicle: water 100 % of control | dose: 200.0 mg/kg/injection, schedule: Q01DX009 (ip), vehicle: water 93 % of control | dose: 200.0 mg/kg/injection, schedule: Q04DX003 (ip), vehicle: water 97 % of control | [14] 97 % of control | dose: 400.0 mg/kg/injection, schedule: Q01DX009 (ip), vehicle: water 95 % of control | dose: 400.0 mg/kg/injection, schedule: Q04DX003 (ip), vehicle: water 97 % of control

O=C1c2ccccc2C(=O)N1C/C(Cl)=C/Cl
inactive: [20] 92 % of control | [16] 97 % of control | [21] 93 % of control | [22] 93 % of control | dose: 400.0 mg/kg/injection, schedule: Q01DX009 (ip), vehicle: saline with Tween-80 91 % of control | [23] 92 % of control

Nc1cccc(COc2ccccc2)c1
inactive: dose: 100.0 mg/kg/injection, schedule: Q04DX003 (ip), vehicle: saline 90 % of control | dose: 200.0 mg/kg/injection, schedule: Q04DX003 (ip), vehicle: saline 92 % of control

CN1CCCC1=O
inactive: [15] 91 % of control | [20] 88 % of control | [21] 102 % of control

CCN1CCC2CN(C(=O)Nc3ccccc3)CCN2C1=O (stereo not drawn)
inactive: [16] 98 % of control | [22] 90 % of control | [23] 87 % of control

S=C1NC2CCCc3ccccc3C2O1 (stereo not drawn)
inactive: [5] 111 % of control | [7] 113 % of control | dose: 400.0 mg/kg/injection, schedule: Q04DX003 (ip), vehicle: Klucel (hydroxypropylcellulose) (HPC) 107 % of control

CN(C)/N=C/c1cccc[n+]1C
inactive: dose: 6.25 mg/kg/injection, schedule: Q01DX009 (ip), vehicle: saline 102 % of control | [11] 106 % of control | [13] 115 % of control

O=C(O)CCSC(=S)Nc1ccccc1O
inactive: [3] 103 % of control | [6] 93 % of control | [14] 98 % of control

CSc1ncnc2c1ncn2-n1c(C)ccc1C
inactive: [17] 89 % of control | [16] 96 % of control | [18] 90 % of control | [22] 94 % of control | [19] 93 % of control | [23] 93 % of control
